In the supplement of paper PMC10307832:

Assays:
Assay in all cases: relative viability (nuclei count vs DMSO), 5 days (fraction); higher = more cells survive
Linifanib = compound: Cc1ccc(F)c(NC(=O)Nc2ccc(-c3cccc4[nH]nc(N)c34)cc2)c1 [Linifanib]
In short: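 MetaXpress counted nuclei in 4× images of lung cancer cell lines that had been fixed, permeabilised and Hoechst-stained in one step. Before that, cells in 1536-well plates were kept overnight at 37 °C, pinned with five √10-spaced library-drug doses on vehicle-anchored plates, and cultured 5 days without medium change. Viability takes treated-well nuclei over vehicle-well nuclei and uses the median across plates. Plates were accepted only at control CV below 25% and at least one doubling.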

Linifanib + Navitoclax = compound: Cc1ccc(F)c(NC(=O)Nc2ccc(-c3cccc4[nH]nc(N)c34)cc2)c1 [Linifanib] + CC1(C)CCC(c2ccc(Cl)cc2)=C(CN2CCN(c3ccc(C(=O)NS(=O)(=O)c4ccc(N[C@H](CCN5CCOCC5)CSc5ccccc5)c(S(=O)(=O)C(F)(F)F)c4)cc3)CC2)C1 [Navitoclax] (partner 0.5 µM)
In short: (§1)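 Medians of duplicate plates are given as relative viability. That measure is the nuclei count in treated wells divided by the count in vehicle wells. Counts were taken on 4× images of lung cancer cell lines in 1536-well plates, 5 days after pin-tool dosing the day after seeding with one drug alone or a fixed anchor-drug dose plus five library-drug doses (not always all listed) in √10 steps.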

Linifanib + Alpelisib = compound: Cc1ccc(F)c(NC(=O)Nc2ccc(-c3cccc4[nH]nc(N)c34)cc2)c1 [Linifanib] + Cc1nc(NC(=O)N2CCC[C@H]2C(N)=O)sc1-c1ccnc(C(C)(C)C(F)(F)F)c1 [Alpelisib] (partner 2 µM)
In short: as §1

Linifanib + Crizotinib = compound: Cc1ccc(F)c(NC(=O)Nc2ccc(-c3cccc4[nH]nc(N)c34)cc2)c1 [Linifanib] + C[C@@H](Oc1cc(-c2cnn(C3CCNCC3)c2)cnc1N)c1c(Cl)ccc(F)c1Cl [Crizotinib] (partner 1 µM)
In short: as §1

Linifanib + Bortezomib = compound: Cc1ccc(F)c(NC(=O)Nc2ccc(-c3cccc4[nH]nc(N)c34)cc2)c1 [Linifanib] + CC(C)C[C@H](NC(=O)[C@H](Cc1ccccc1)NC(=O)c1cnccn1)B(O)O [Bortezomib] (partner 0.002 µM)
In short: as §1

Linifanib + Olaparib = compound: Cc1ccc(F)c(NC(=O)Nc2ccc(-c3cccc4[nH]nc(N)c34)cc2)c1 [Linifanib] + O=C(c1cc(Cc2n[nH]c(=O)c3ccccc23)ccc1F)N1CCN(C(=O)C2CC2)CC1 [Olaparib] (partner 8 µM)
In short: as §1

Linifanib + Lapatinib = compound: Cc1ccc(F)c(NC(=O)Nc2ccc(-c3cccc4[nH]nc(N)c34)cc2)c1 [Linifanib] + CS(=O)(=O)CCNCc1ccc(-c2ccc3ncnc(Nc4ccc(OCc5cccc(F)c5)c(Cl)c4)c3c2)o1 [Lapatinib] (partner 2 µM)
In short: as §1

Linifanib + Pictilisib = compound: Cc1ccc(F)c(NC(=O)Nc2ccc(-c3cccc4[nH]nc(N)c34)cc2)c1 [Linifanib] + CS(=O)(=O)N1CCN(Cc2cc3nc(-c4cccc5[nH]ncc45)nc(N4CCOCC4)c3s2)CC1 [Pictilisib] (partner 1 µM)
In short: as §1

Linifanib + Linsitinib = compound: Cc1ccc(F)c(NC(=O)Nc2ccc(-c3cccc4[nH]nc(N)c34)cc2)c1 [Linifanib] + C[C@]1(O)C[C@@H](c2nc(-c3ccc4ccc(-c5ccccc5)nc4c3)c3c(N)nccn32)C1 [Linsitinib] (partner 1 µM)
In short: as §1

Linifanib + Foretinib = compound: Cc1ccc(F)c(NC(=O)Nc2ccc(-c3cccc4[nH]nc(N)c34)cc2)c1 [Linifanib] + COc1cc2c(Oc3ccc(NC(=O)C4(C(=O)Nc5ccc(F)cc5)CC4)cc3F)ccnc2cc1OCCCN1CCOCC1 [Foretinib] (partner 0.25 µM)
In short: as §1

Linifanib + Vorinostat = compound: Cc1ccc(F)c(NC(=O)Nc2ccc(-c3cccc4[nH]nc(N)c34)cc2)c1 [Linifanib] + O=C(CCCCCCC(=O)Nc1ccccc1)NO [Vorinostat] (partner 1 µM)
In short: as §1

Linifanib + Palbociclib = compound: Cc1ccc(F)c(NC(=O)Nc2ccc(-c3cccc4[nH]nc(N)c34)cc2)c1 [Linifanib] + CC(=O)c1c(C)c2cnc(Nc3ccc(N4CCNCC4)cn3)nc2n(C2CCCC2)c1=O [Palbociclib] (partner 0.5 µM)
In short: as §1

Linifanib + Tozasertib = compound: Cc1ccc(F)c(NC(=O)Nc2ccc(-c3cccc4[nH]nc(N)c34)cc2)c1 [Linifanib] + Cc1cc(Nc2cc(N3CCN(C)CC3)nc(Sc3ccc(NC(=O)C4CC4)cc3)n2)n[nH]1 [Tozasertib] (partner 0.1 µM)
In short: as §1

Linifanib + Phenformin = compound: Cc1ccc(F)c(NC(=O)Nc2ccc(-c3cccc4[nH]nc(N)c34)cc2)c1 [Linifanib] + N=C(N)NC(=N)NCCc1ccccc1 [Phenformin] (partner 250 µM)
In short: as §1

Linifanib + Decitabine = compound: Cc1ccc(F)c(NC(=O)Nc2ccc(-c3cccc4[nH]nc(N)c34)cc2)c1 [Linifanib] + Nc1ncn([C@H]2C[C@H](O)[C@@H](CO)O2)c(=O)n1 [Decitabine] (partner 2 µM)
In short: as §1

Linifanib + OSI-027 = compound: Cc1ccc(F)c(NC(=O)Nc2ccc(-c3cccc4[nH]nc(N)c34)cc2)c1 [Linifanib] + COc1cccc2cc(-c3nc([C@H]4CC[C@H](C(=O)O)CC4)n4ncnc(N)c34)[nH]c12 [OSI-027] (partner 0.5 µM)
In short: as §1

Linifanib + Luminespib = compound: Cc1ccc(F)c(NC(=O)Nc2ccc(-c3cccc4[nH]nc(N)c34)cc2)c1 [Linifanib] + CCNC(=O)c1noc(-c2cc(C(C)C)c(O)cc2O)c1-c1ccc(CN2CCOCC2)cc1 [Luminespib] (partner 0.01 µM)
In short: as §1

Linifanib + Trametinib = compound: Cc1ccc(F)c(NC(=O)Nc2ccc(-c3cccc4[nH]nc(N)c34)cc2)c1 [Linifanib] + CC(=O)Nc1cccc(-n2c(=O)n(C3CC3)c(=O)c3c(Nc4ccc(I)cc4F)n(C)c(=O)c(C)c32)c1 [Trametinib] (partner 0.02 µM)
In short: as §1

Linifanib + Pemetrexed = compound: Cc1ccc(F)c(NC(=O)Nc2ccc(-c3cccc4[nH]nc(N)c34)cc2)c1 [Linifanib] + Nc1nc2[nH]cc(CCc3ccc(C(=O)N[C@@H](CCC(=O)O)C(=O)O)cc3)c2c(=O)[nH]1 [Pemetrexed] (partner 0.2 µM)
In short: as §1

Linifanib + AZD7762 = compound: Cc1ccc(F)c(NC(=O)Nc2ccc(-c3cccc4[nH]nc(N)c34)cc2)c1 [Linifanib] + NC(=O)Nc1cc(-c2cccc(F)c2)sc1C(=O)N[C@H]1CCCNC1 [AZD7762] (partner 0.2 µM)
In short: as §1

Linifanib + Dasatinib = compound: Cc1ccc(F)c(NC(=O)Nc2ccc(-c3cccc4[nH]nc(N)c34)cc2)c1 [Linifanib] + Cc1nc(Nc2ncc(C(=O)Nc3c(C)cccc3Cl)s2)cc(N2CCN(CCO)CC2)n1 [Dasatinib] (partner 0.075 µM)
In short: as §1

Which results are given for IA-LM?
relative viability (Linifanib; 0.03162 µM): 0.983; relative viability (Linifanib; 0.1 µM): 0.84; relative viability (Linifanib; 0.3162 µM): 0.914; relative viability (Linifanib + Navitoclax; first compound 0.03162 µM): 0.855; relative viability (Linifanib + Navitoclax; first compound 0.1 µM): 0.947; relative viability (Linifanib + Navitoclax; first compound 0.3162 µM): 0.656; relative viability (Linifanib + Alpelisib; first compound 0.03162 µM): 0.588; relative viability (Linifanib + Alpelisib; first compound 0.1 µM): 0.872; relative viability (Linifanib + Alpelisib; first compound 0.3162 µM): 0.643; relative viability (Linifanib + Crizotinib; first compound 0.03162 µM): 0.806; relative viability (Linifanib + Crizotinib; first compound 0.3162 µM): 0.768; relative viability (Linifanib + Bortezomib; first compound 0.03162 µM): 0.752; relative viability (Linifanib + Bortezomib; first compound 0.1 µM): 0.974; relative viability (Linifanib + Bortezomib; first compound 0.3162 µM): 0.846; relative viability (Linifanib + Olaparib; first compound 0.03162 µM): 0.901; relative viability (Linifanib + Olaparib; first compound 0.1 µM): 0.81; relative viability (Linifanib + Olaparib; first compound 0.3162 µM): 0.8; relative viability (Linifanib + Lapatinib; first compound 0.03162 µM): 0.718; relative viability (Linifanib + Lapatinib; first compound 0.3162 µM): 0.713; relative viability (Linifanib + Pictilisib; first compound 0.03162 µM): 0.313; relative viability (Linifanib + Pictilisib; first compound 0.1 µM): 0.319; relative viability (Linifanib + Pictilisib; first compound 0.3162 µM): 0.338; relative viability (Linifanib + Linsitinib; first compound 0.03162 µM): 0.611; relative viability (Linifanib + Linsitinib; first compound 0.1 µM): 0.46; relative viability (Linifanib + Linsitinib; first compound 0.3162 µM): 0.55; relative viability (Linifanib + Foretinib; first compound 0.03162 µM): 1.2; relative viability (Linifanib + Foretinib; first compound 0.1 µM): 1.18; relative viability (Linifanib + Foretinib; first compound 0.3162 µM): 1.15; relative viability (Linifanib + Vorinostat; first compound 0.03162 µM): 0.841; relative viability (Linifanib + Vorinostat; first compound 0.1 µM): 0.906; relative viability (Linifanib + Vorinostat; first compound 0.3162 µM): 1.33

NCI-H522 was tested. Which relative viability (Linifanib; 0.03162 µM) did it give?
The relative viability was 0.943.

What about the relative viability (Linifanib; 0.1 µM) of the same cell line?
The relative viability was 1.02.

And the relative viability (Linifanib; 0.3162 µM)?
The relative viability was 0.995.

What about the relative viability (Linifanib + Palbociclib; first compound 0.03162 µM) of the same cell line?
Its relative viability is 1.05.

And the relative viability (Linifanib + Palbociclib; first compound 0.1 µM)?
The relative viability was 0.954.

And the relative viability (Linifanib + Palbociclib; first compound 0.3162 µM)?
Its relative viability is 0.995.

And the relative viability (Linifanib + Tozasertib; first compound 0.03162 µM)?
Its relative viability is 0.556.

And the relative viability (Linifanib + Tozasertib; first compound 0.1 µM)?
The relative viability was 0.542.

What about the relative viability (Linifanib + Tozasertib; first compound 0.3162 µM) of the same cell line?
Its relative viability is 0.474.

And the relative viability (Linifanib + Phenformin; first compound 0.03162 µM)?
Its relative viability is 0.716.

What about the relative viability (Linifanib + Phenformin; first compound 0.1 µM) of the same cell line?
Its relative viability is 0.647.

What about the relative viability (Linifanib + Phenformin; first compound 0.3162 µM) of the same cell line?
The relative viability was 0.551.

And the relative viability (Linifanib + Olaparib; first compound 0.03162 µM)?
The relative viability was 0.555.

What about the relative viability (Linifanib + Olaparib; first compound 0.1 µM) of the same cell line?
The relative viability was 0.693.

And the relative viability (Linifanib + Olaparib; first compound 0.3162 µM)?
Its relative viability is 0.667.

And the relative viability (Linifanib + Decitabine; first compound 0.03162 µM)?
Its relative viability is 0.613.

And the relative viability (Linifanib + Decitabine; first compound 0.1 µM)?
Its relative viability is 0.703.

And the relative viability (Linifanib + Decitabine; first compound 0.3162 µM)?
The relative viability was 0.759.

And the relative viability (Linifanib + OSI-027; first compound 0.03162 µM)?
Its relative viability is 0.815.

And the relative viability (Linifanib + OSI-027; first compound 0.1 µM)?
Its relative viability is 0.721.

What about the relative viability (Linifanib + OSI-027; first compound 0.3162 µM) of the same cell line?
The relative viability was 0.719.

What about the relative viability (Linifanib + Luminespib; first compound 0.03162 µM) of the same cell line?
Its relative viability is 1.18.

And the relative viability (Linifanib + Luminespib; first compound 0.1 µM)?
Its relative viability is 0.98.

And the relative viability (Linifanib + Luminespib; first compound 0.3162 µM)?
The relative viability was 1.13.

And the relative viability (Linifanib + Trametinib; first compound 0.03162 µM)?
Its relative viability is 0.643.

What about the relative viability (Linifanib + Trametinib; first compound 0.1 µM) of the same cell line?
The relative viability was 0.713.

And the relative viability (Linifanib + Trametinib; first compound 0.3162 µM)?
The relative viability was 0.736.

What about the relative viability (Linifanib + Pemetrexed; first compound 0.03162 µM) of the same cell line?
The relative viability was 0.945.

What about the relative viability (Linifanib + Pemetrexed; first compound 0.1 µM) of the same cell line?
Its relative viability is 0.798.

And the relative viability (Linifanib + Pemetrexed; first compound 0.3162 µM)?
Its relative viability is 1.06.

What about the relative viability (Linifanib + AZD7762; first compound 0.03162 µM) of the same cell line?
The relative viability was 0.879.

And the relative viability (Linifanib + AZD7762; first compound 0.1 µM)?
Its relative viability is 0.804.

What about the relative viability (Linifanib + AZD7762; first compound 0.3162 µM) of the same cell line?
Its relative viability is 0.809.

What about the relative viability (Linifanib + Dasatinib; first compound 0.03162 µM) of the same cell line?
The relative viability was 0.862.

And the relative viability (Linifanib + Dasatinib; first compound 0.1 µM)?
Its relative viability is 0.868.

And the relative viability (Linifanib + Dasatinib; first compound 0.3162 µM)?
The relative viability was 0.871.

What about the relative viability (Linifanib + Vorinostat; first compound 0.03162 µM) of the same cell line?
The relative viability was 0.851.

What about the relative viability (Linifanib + Vorinostat; first compound 0.1 µM) of the same cell line?
Its relative viability is 0.88.

And the relative viability (Linifanib + Vorinostat; first compound 0.3162 µM)?
Its relative viability is 0.929.
